Holding throughout (format): cell-based
The subject of one series is SARS-CoV-2. The note with it: for block of infection at the lowest concentration tested / inhibition of infection compared to the NS control: concentration curves; for block of infection at the lowest concentration tested: 3 nM; for Duplicate A % Infection / Duplicate B % Infection / Mean % infected / Mean % inhibition / Duplicate A % Inhibition / Duplicate B % Inhibition: primary screen using live virus; for Mean % infected / Mean % inhibition: average of the duplicates; for Mean % inhibition: vs non-silencing controls; for Duplicate A % Inhibition / Duplicate B % Inhibition: compared to the mean of the non-silencing controls; for inhibition of infection compared to the NS control: individual siRNAs at varying concentrations, flat response.

Series [1] relates to SARS-CoV-2 target gene fragments (Spike, ORF1ab, ORF3A & E & M, N & ORF10 & 3'UTR). The note with it: for Primary Screening (KD %, 60 ng/well, 48 h, 96 well) A549 / EC50 (pg/ul, 48 h, 96 well) A549: Table C; for EC50 A549 cells: Table D.
Series [2] shares this test system. The note with it: for Primary Screening (KD %, 60 ng/well, 48 h, 96 well) 293T / EC50 (pg/ul, 48 h, 96 well) 293T: Table C; for EC50 293T cells: Table D.

Read-outs that look alike come from different tables or passages of the source. d = 2'-deoxy (DNA); r = 2'-OH (RNA)

GGCCGCAAATTGCACAATT [COV14]: in the series on SARS-CoV-2, the “block of infection at the lowest concentration tested” value (shortened to “block of infection”) was “complete block of infection”, the “Duplicate A % Infection” value was 9%, the “Duplicate B % Infection” value is on record as 8% and the Mean % infected amounted to 8%. Moreover, in the series with SARS-CoV-2, the Mean % inhibition is 66%, the “Duplicate A % Inhibition” value is 57%, the “Duplicate B % Inhibition” value is recorded as 75% and the “activity in a primary screen using live virus (ranking in words)” value (from here on “activity in a primary screen”) was “best activity”.
As to GGACAAUCAAAAAGAGUUGdTdT [Guangzhou16], in series [1] (A549), the “Primary Screening (KD %, 60 ng/well, 48 h, 96 well) A549” value worked out at 80%. In series [2], the “Primary Screening (KD %, 60 ng/well, 48 h, 96 well) 293T” value amounted to 83% and the “EC50 (pg/ul, 48 h, 96 well) 293T” value turned out to be 20.4 pg/µL.
As for CGACTACTAGCGTGCCTTT [COV6], in series [1] (A549), the “Primary Screening (KD %, 60 ng/well, 48 h, 96 well) A549” value is on record as 87% and the “EC50 (pg/ul, 48 h, 96 well) A549” value stood at 0.9 pg/µL. Also, the “EC50 A549 cells” value in series [1] was 0.9 ng/mL. In addition, in series [2], the “Primary Screening (KD %, 60 ng/well, 48 h, 96 well) 293T” value came to 78%; the “EC50 (pg/ul, 48 h, 96 well) 293T” value is 17.9 pg/µL; the “EC50 293T cells” value was 17.9 ng/mL. The “inhibition of infection compared to the NS control” value with SARS-CoV-2 is listed as about 50%.
With “UGCUAAUCUUGCUGCUACUAAAAUG (antisense strand not given here) [Guangzhou25]”, the “Primary Screening (KD %, 60 ng/well, 48 h, 96 well) A549” value in series [1] (A549) was determined as 90%. In series [2], the “Primary Screening (KD %, 60 ng/well, 48 h, 96 well) 293T” value is recorded as 83%.
Regarding GCUAAUCUUGCUGCUACUAAAAUGU [Guangzhou22], the “Primary Screening (KD %, 60 ng/well, 48 h, 96 well) A549” value in series [1] (A549) came out at 90%. Moreover, in series [2], the “Primary Screening (KD %, 60 ng/well, 48 h, 96 well) 293T” value is reported as 83% and the “EC50 (pg/ul, 48 h, 96 well) 293T” value was found to be 23.2 pg/µL.
Turning to CCACCAACAGAGCCTAAAA [COV18], in the series with SARS-CoV-2, the “inhibition of the virus” value was found to be 100%, the “block of infection” value is on record as “complete block of infection”, the “Duplicate A % Infection” value is reported as 9% and the “Duplicate B % Infection” value came out at 7%. In the series with SARS-CoV-2, the Mean % infected is on record as 8%, the Mean % inhibition is recorded as 68%, the “Duplicate A % Inhibition” value is 59% and the “Duplicate B % Inhibition” value stood at 76%. The “activity in a primary screen” value in the series with SARS-CoV-2 is recorded as “best activity”.
Regarding CUAAUCUUGCUGCUACUAAdTdT [Guangzhou12], the “Primary Screening (KD %, 60 ng/well, 48 h, 96 well) A549” value in series [1] (A549) amounted to 85%. Moreover, the “Primary Screening (KD %, 60 ng/well, 48 h, 96 well) 293T” value in series [2] stood at 70%.
Take GCCGCAAATTGCACAATTT [COV15]: in the series with SARS-CoV-2, the “block of infection” value is listed as “complete block of infection”, the “Duplicate A % Infection” value was 10%, the “Duplicate B % Infection” value is 13% and the Mean % infected was found to be 11%. Also, in the series with SARS-CoV-2, the Mean % inhibition worked out at 56%, the “Duplicate A % Inhibition” value is listed as 54% and the “Duplicate B % Inhibition” value turned out to be 57%.
For CCCTAATGTGTAAAATTAA [COV23], the “block of infection” value in the series on SARS-CoV-2 was “complete block of infection”.
On to GCCATTAGTGCAAAGAATA [COV4], for which, in the series with SARS-CoV-2, the “inhibition of the virus” value came out at 100%, the “block of infection” value was “complete block of infection”, the “Duplicate A % Infection” value turned out to be 6% and the “Duplicate B % Infection” value was found to be 5%. In addition, in the series with SARS-CoV-2, the Mean % infected came out at 6%, the Mean % inhibition was 77%, the “Duplicate A % Inhibition” value amounted to 70% and the “Duplicate B % Inhibition” value is recorded as 84%. Further, the “activity in a primary screen” value in the series on SARS-CoV-2 is recorded as “best activity”.
As to GGAAGAGCCCTAATGTGTA [COV21], the “block of infection” value in the series with SARS-CoV-2 was “complete block of infection”.
As to “CAAGUCAAACAAAUUUACAdTdT (sense CAAGUCAAACAAAUUUACATT; sugars from the 5' end r19 d2, backbone not given here) [Guangzhou5]”, the “Primary Screening (KD %, 60 ng/well, 48 h, 96 well) A549” value in series [1] (A549) was determined as 80%. In series [2], the “Primary Screening (KD %, 60 ng/well, 48 h, 96 well) 293T” value is 75%.
For the substance CCCACCAACAGAGCCTAAA [COV17], in the series with SARS-CoV-2, the “block of infection” value is given as “complete block of infection”.
On to CUUGCUGCUACUAAAAUGUdTdT [Guangzhou13], for which, in series [1] (A549), the “Primary Screening (KD %, 60 ng/well, 48 h, 96 well) A549” value is 82%. Besides, in series [2], the “Primary Screening (KD %, 60 ng/well, 48 h, 96 well) 293T” value stood at 76%.
Take GGAAGGAAGTTCTGTTGAA [COV3]: in series [1] (A549), the “EC50 on the inhibition efficiency” value is 0.3 ng/mL; the “Primary Screening (KD %, 60 ng/well, 48 h, 96 well) A549” value was 89%; the “EC50 (pg/ul, 48 h, 96 well) A549” value was found to be 0.3 pg/µL. Further, the “EC50 A549 cells” value in series [1] is 0.3 ng/mL. In series [2], the “EC50 on the inhibition efficiency” value was 5.8 ng/mL; the “Primary Screening (KD %, 60 ng/well, 48 h, 96 well) 293T” value came out at 89%; the “EC50 (pg/ul, 48 h, 96 well) 293T” value amounted to 5.8 pg/µL; the “EC50 293T cells” value worked out at 5.8 ng/mL. In the series with SARS-CoV-2, the “inhibition of the virus” value came to 100%, the “block of infection” value was “complete block of infection”, the “Duplicate A % Infection” value is reported as 3% and the “Duplicate B % Infection” value came out at 6%. In addition, in the series with SARS-CoV-2, the Mean % infected came to 5%, the Mean % inhibition worked out at 81%, the “Duplicate A % Inhibition” value turned out to be 84% and the “Duplicate B % Inhibition” value is 79%. In addition, the “activity in a primary screen” value with SARS-CoV-2 is on record as “best activity”. The “inhibition, single siRNA alone” value in the series with SARS-CoV-2 (0.041 nM alone) is on record as about 48%.
For the substance CUGCUAAUCUUGCUGCUACUAAAAU [Guangzhou21], the “Primary Screening (KD %, 60 ng/well, 48 h, 96 well) A549” value in series [1] (A549) was 91%. Further, the “Primary Screening (KD %, 60 ng/well, 48 h, 96 well) 293T” value in series [2] came to 81%.
On to “UUGGUGGUUUUAAUUUUUCACAAAU (antisense strand not given here) [Guangzhou31]”, for which the “Primary Screening (KD %, 60 ng/well, 48 h, 96 well) A549” value in series [1] (A549) was determined as 73%. Further, in series [2], the “Primary Screening (KD %, 60 ng/well, 48 h, 96 well) 293T” value is 81% and the “EC50 (pg/ul, 48 h, 96 well) 293T” value stood at 44 pg/µL.
Consider CGCTTCGATTGTGTGCGTA [COV9], for which, in series [1] (A549), the “Primary Screening (KD %, 60 ng/well, 48 h, 96 well) A549” value worked out at 74%. Moreover, the “Primary Screening (KD %, 60 ng/well, 48 h, 96 well) 293T” value in series [2] came out at 88%. In addition, in the series with SARS-CoV-2, the “inhibition of infection compared to the NS control” value is recorded as about 50%.
Regarding CCAGAACAAACCCAAGGAA [COV13], in series [2], the “Primary Screening (KD %, 60 ng/well, 48 h, 96 well) 293T” value was found to be 84%; the “EC50 (pg/ul, 48 h, 96 well) 293T” value was 3.1 pg/µL; the “EC50 293T cells” value is 3.1 ng/mL.
With CCTTTGAAAAAGGTGACTA [COV5], in series [1] (A549), the “Primary Screening (KD %, 60 ng/well, 48 h, 96 well) A549” value was 84%. Further, the “Primary Screening (KD %, 60 ng/well, 48 h, 96 well) 293T” value in series [2] worked out at 85%.
“UCUGCUAAUCUUGCUGCUACUAAAA (antisense strand not given here) [Guangzhou32]”: the “Primary Screening (KD %, 60 ng/well, 48 h, 96 well) A549” value in series [1] (A549) came to 90%. In series [2], the “Primary Screening (KD %, 60 ng/well, 48 h, 96 well) 293T” value is listed as 89%; the “EC50 (pg/ul, 48 h, 96 well) 293T” value turned out to be 8 pg/µL; the “EC50 293T cells” value was about 8 ng/mL.
With “UUUGGUGGUUUUAAUUUUUCACAAA (antisense strand not given here) [Guangzhou30]”, the “Primary Screening (KD %, 60 ng/well, 48 h, 96 well) A549” value in series [1] (A549) is listed as 78%. Moreover, the “Primary Screening (KD %, 60 ng/well, 48 h, 96 well) 293T” value in series [2] stood at 86%.
Consider “CUAAUCUUGCUGCUACUAAAAUGUC (antisense strand not given here) [Guangzhou23]”, for which the “Primary Screening (KD %, 60 ng/well, 48 h, 96 well) A549” value in series [1] (A549) stood at 87%. Further, in series [2], the “Primary Screening (KD %, 60 ng/well, 48 h, 96 well) 293T” value stood at 79%.
Consider CCTAATGTGTAAAATTAAT [COV24], for which, in series [2], the “Primary Screening (KD %, 60 ng/well, 48 h, 96 well) 293T” value is on record as 86%; the “EC50 (pg/ul, 48 h, 96 well) 293T” value was determined as 2.4 pg/µL; the “EC50 293T cells” value is 2.4 ng/mL. In addition, the “block of infection” value with SARS-CoV-2 was “complete block of infection”.

The record behind these values is US12006500B2 (priority 2020, dated 2024).
